Reference: patent publication US20260191961A1, “RUTHENIUM (II) POLYPYRIDYL COMPLEX AS A PHOTO-SENSITISER IN PHOTODYNAMIC THERAPY, AND A PROCEDURE FOR MAKING SAID RUTHENIUM (II) POLYPYRIDYL COMPLEX” (UNIVERSITÀ DEGLI STUDI DI FIRENZE, priority 2022, published 2026)
pIC50: −log10 of the molar value. Where two headings read alike, the source gives them in different places.

Key:
[1] = DHN assay (indirect UV-visible probe for 1O2); type: physicochemical; details: acetonitrile, LED 400-500 nm; for kobs, rate constant of the DHN photo-oxidation process: [DHN]=330 μM, [Ru]=10 μM; for Φ1O2 (b) singlet oxygen quantum yield: indirect UV-visible measurements with DHN probe, standard [Ru(phen)3]Cl2
Protocol: A confirmation of the production of singlet oxygen (^1O2) with such a high quantum yields by the three IIIa-c molecular systems was obtained using 1,5-dihydroxynaphthalene (DHN) as an indirect chemical probe for ^1O2 and [Ru(phen)3]Cl2 as a commercial standard. In the DHN assay, the probe is selectively and quantitatively oxidised in the presence of ^1O2 to give the corresponding photo-oxidation product 5-hydroxy-1,4-naphthalenedione (Juglone). The production of ^1O2 was assessed by monitoring the decrease in the DHN absorption band at λ=297 nm and the corresponding increase in the Juglone band at λ=427 nm. […] On this basis, the quantum yield of formation of ^1O2 can be obtained via the equation
where φΔ are the quantum yields of ^1O2 production from the photosensitising agents, k are the rate constants obtained from the DHN assays, labs represents the absolute value for the integration of the absorption of the photosensitising agents in the spectral emission region of the LED lamp (400 nm to 500 nm), and the subscript ST indicates the commercial standard [Ru(phen)3]Cl2.

[2] = value of the commercial standard used for the calculation; cited from earlier work
[3] = Singlet oxygen quantum yield by direct 1O2 phosphorescence at 1270 nm; type: physicochemical; details: acetonitrile; direct phosphorescence signal of 1O2 at 1270 nm; reference [Ru(phen)3Cl2]
Protocol: The capacity of complexes IIIa-c to efficiently generate singlet oxygen (^1O2) upon irradiation with light is a key factor in the evaluation of their potential as photosensitising agents for applications in photodynamic therapy. In this connection, the singlet oxygen quantum yields of complexes IIIa-c were determined by means of direct phosphorescence signal of ^1O2 at 1270 nm generated by irradiation of acetonitrile solutions of the complexes and using dichlorotris(1,10-phenanthroline)ruthenium (II) chloride ([Ru(phen)3Cl2]) as a standard reference. A Horiba FluoroMax Plus spectrofluorometer was used for these measurements.

[4] = test system: squamous cell carcinoma of the epidermis (A431); assay: In-vitro photo-cytotoxicity, MTT assay, A431; type: cell-based; details: 1 h incubation, MTT after 24 h, read-out: IC50 (maximum response set to zero)
Protocol: (§1) The activity of compound IIIa as a photosensitising agent in photodynamic therapy was evaluated on two in-vitro tumour models: squamous cell carcinoma of the epidermis (A431) and glioblastoma multiforme (U87MG). Cells cultured on 96-well plates were treated with increasing concentrations of IIIa dispersed in the culture medium for one hour. At the end of the incubation, the medium was replaced, and the cells were exposed to LED light (λmax 462 nm) for 30 minutes, or were left in the dark during the same time. At the end of the 30 minutes, the cells were placed back and maintained in the incubator for 24 hours before measuring the metabolic activity by MTT assay. Six replicates were used for each condition, and cell viability of 100% was calculated from the response of untreated cells not exposed to LED light. […] The high specificity of IIIa, defined as toxicity only when exposed to light, is evident from the difference in IC50 values, which indicate a potent cytotoxic activity in the presence of light irradiation and substantial inertia in the dark at the concentrations tested, as shown in Table 3.
The activity of compound IIIb as a photosensitising agent in photodynamic therapy was evaluated on an in vitro tumour model, i.e., squamous cell carcinoma of the epidermis (A431), following the same protocol as compound IIIa. […] The high specificity of IIIb, defined as toxicity only when exposed to light, is evident from the difference in IC50 values, which indicate a potent cytotoxic activity in the presence of light irradiation and substantial inertia in the dark at test concentrations, see Table 4.
The activity of compound IIIb encapsulated in cubosomes as a photosensitising agent in photodynamic therapy was evaluated on an in vitro tumour model: squamous cell carcinoma of the epidermis (A431), following the same protocol as compound IIIa and IIIb as such. […] However, the incorporation into a delivery system can bring numerous benefits, including increased distribution in the tumour after in vivo administration, increased stability and solubility, and improved crossing of biological barriers.

[5] = test system: glioblastoma multiforme (U87MG); assay: In-vitro photo-cytotoxicity, MTT assay, U87MG; type: cell-based; details: 1 h incubation, MTT after 24 h, read-out: IC50 (maximum response set to zero)
Protocol: as §1

[6] = test system: Methastatic Lung Adenocarcinoma (Calu-3); assay: In-vitro photo-cytotoxicity, MTT assay, Calu-3; type: cell-based; details: read-out: IC50 (maximum response set to zero)
Protocol: The activity of compound IIIa as a photosensitising agent in photodynamic therapy was evaluated on two in-vitro tumour models: squamous cell carcinoma of the epidermis (A431) and glioblastoma multiforme (U87MG). Cells cultured on 96-well plates were treated with increasing concentrations of IIIa dispersed in the culture medium for one hour. At the end of the incubation, the medium was replaced, and the cells were exposed to LED light (λmax 462 nm) for 30 minutes, or were left in the dark during the same time. At the end of the 30 minutes, the cells were placed back and maintained in the incubator for 24 hours before measuring the metabolic activity by MTT assay. Six replicates were used for each condition, and cell viability of 100% was calculated from the response of untreated cells not exposed to LED light. […]
The activity of compound IIIc as a photosensitising agent in photodynamic therapy was evaluated on an in-vitro tumour model, Methastatic Lung Adenocarcinoma (Calu-3), following the same protocol as compounds IIIa and IIIb. […]
The activity of compound IIIc encapsulated in cubosomes as a photosensitising agent in photodynamic therapy was evaluated on an in vitro tumour model: Methastatic Lung Adenocarcinoma (Calu-3), following the same protocol as compound IIIa and IIIb. […]

[7] = 30′ LED light exposure (λmax 462 nm)

For `[Cl][Ru][Cl].c1cnc2c(c1)ccc1cccnc12.c1cnc2c(c1)ccc1cccnc12.c1cnc2c(c1)ccc1cccnc12` [[Ru(phen)3]Cl2, dichlorotris(1,10-phenanthroline)ruthenium (II) chloride, reference compound], the “kobs, rate constant of the DHN photo-oxidation process” value (shortened to “kobs, rate constant”) [1] is listed as 9.41×10^−4 and the “standard quantum yield of 1O2 production” value [2] is listed as 0.38.
With `Cc1ccnc(-c2cc(C)ccn2)c1.F[P-](F)(F)(F)(F)F.F[P-](F)(F)(F)(F)F.[Ru+2].c1ccc2cc3nc4c5cccnc5c5ncccc5c4nc3cc2c1.c1ccc2cc3nc4c5cccnc5c5ncccc5c4nc3cc2c1` [Complex IIIa] the “Φ1O2 (a) singlet oxygen quantum yield” value [3] was 0.54 ± 0.06, the “kobs, rate constant” value [1] was 1.85×10^−3 and the “Φ1O2 (b) singlet oxygen quantum yield” value [1] was 0.44. For the same molecule, the pIC50 [4, 7] was 7.60, the pIC50 ([4]; in the dark) was less than 4.40 and the pIC50 [5, 7] was 6.79. It also gave a pIC50 ([5]; in the dark) of less than 4.40.
With `F[P-](F)(F)(F)(F)F.F[P-](F)(F)(F)(F)F.O=C(c1ccnc(-c2cc(C(=O)N3CCOCC3)ccn2)c1)N1CCOCC1.[Ru+2].c1ccc2cc3nc4c5cccnc5c5ncccc5c4nc3cc2c1.c1ccc2cc3nc4c5cccnc5c5ncccc5c4nc3cc2c1` [Complex IIIc] the “Φ1O2 (a) singlet oxygen quantum yield” value [3] was 0.54 ± 0.6, the “kobs, rate constant” value [1] was 1.83×10^−3 and the “Φ1O2 (b) singlet oxygen quantum yield” value [1] was 0.42. It also gave a pIC50 ([6]; 30′ LED light exposure) of 7.19 and a pIC50 ([6]; in the dark) of less than 4.40.
For `O=C([O-])c1ccnc(-c2cc(C(=O)[O-])ccn2)c1.[Ru+2].c1ccc2cc3nc4c5cccnc5c5ncccc5c4nc3cc2c1.c1ccc2cc3nc4c5cccnc5c5ncccc5c4nc3cc2c1` [Complex IIIb, [Ru(4,4′-dicarboxylate-2,2′-bipyridine)(benzo[i]dipyrido[3,2-a:2′,3′-c]phenazine)2]], the “Φ1O2 (a) singlet oxygen quantum yield” value [3] was 0.50 ± 0.07, the “kobs, rate constant” value [1] was 2.71×10^−3 and the “Φ1O2 (b) singlet oxygen quantum yield” value [1] was 0.47. It also gave a pIC50 [4, 7] of 6.72 and a pIC50 ([4]; in the dark) of less than 4.40.
